Measurements reported in the NIST ThermoML archive (doi:10.1016/j.tca.2016.04.023).
Values joined by “and” are separate entries in the source; they are usually repeats but may differ in a detail not shown here. Equal entries are not always repeated. ± gives the expanded uncertainty stated by the source.

Legend:
[1] = Crystal; DTA
[2] = Molar enthalpy of transition or fusion; conditions: Crystal; DSC

Normal melting temperature [1]: 28.70 ± 1.1 °C and 28.30 ± 1.1 °C
Molar enthalpy of transition or fusion [2]: 9.69 kcal/mol and 9.27 kcal/mol
SMILES: O.O.O.O.O.O.[Ca+2].[Cl-].[Cl-] [calcium chloride hexahydrate]
